From ChEMBL document CHEMBL5120881, “Silencing Tautomerization to Isolate Unstable Physalins from Physalis minima” (J Nat Prod, 2022) come the findings set out here.

One may read the IC50 as the concentration that gives 50% inhibition.

Data set [1] has as its system A549. The experiment in a line: Antiproliferative activity against human A549 cells assessed as reduction in cell viability incubated for 48 hrs by CCK8 assay. The format is functional, cell-based. The note with it: A549, 48 h.
Data set [2] concerns HepG2. The experiment in a line: Antiproliferative activity against human HepG2 cells assessed as reduction in cell viability incubated for 48 hrs by CCK8 assay. The format is functional, cell-based. The note with it: HepG2, 48 h.
Data set [3] has as its system MCF7. The experiment in a line: Antiproliferative activity against human MCF7 cells assessed as reduction in cell viability incubated for 48 hrs by CCK8 assay. Conditions: MCF7, 48 h. The format is functional, cell-based.
Data set [4] deals with SGC-7901. Put plainly: Antiproliferative activity against human SGC-7901 cells assessed as reduction in cell viability incubated for 48 hrs by CCK8 assay. The format is functional, cell-based. The note with it: SGC-7901, 48 h. A general note: Formazan colour is commonly taken as a measure of viable cells.
A short description of data set [5]: Cytotoxicity against mouse RAW264.7 cells assessed as cell viability at 10 uM incubated for 48 hrs by CCK8 assay. The format is toxicity, cell-based. The note with it: read-out: Activity.
Data set [6] in a line: Cytotoxicity against human L02 cells assessed as cell viability at 10 uM incubated for 48 hrs by CCK8 assay. It is filed as toxicity, cell-based. Conditions: read-out: Activity.
In data set [7] the test system is RAW264.7. Put plainly: Antiinflammatory activity in mouse RAW264.7 assessed as inhibition of LPS-stimulated NO production pretreated with LPS followed by compund addition by Griess reagent based microplate reader assay. The format is functional, cell-based. A general note: Griess reagent forms a coloured azo dye with nitrite.

Turning to `C[C@]12C(=O)C=CCC1=CC[C@@H]1[C@@H]2CC[C@]2(O)C(=O)O[C@@]3(C)[C@H]4C[C@]5(C)[C@@H](CO[C@@]16O[C@@]32[C@H]5C6=O)C(=O)O4` [PHYSALIN B], the half-maximal inhibitory concentration (IC50) came to 11.9 µM in data set [1], 11.7 µM in data set [2], 11.2 µM in data set [3] and 12.1 µM in data set [4]. The viability at 48 h, 10 µM in data set [5] is 95.8%; in data set [6], 97.8%. Further, the “inhibition (INH)” value in data set [7] is reported as less than 50%.
On to `C=C1C(=O)O[C@@H]2C[C@@]1(C)[C@@H]1C(=O)[C@@]3(O)O[C@]14[C@@]2(C)OC(=O)[C@@]4(O)CC[C@H]1[C@H]3C[C@@H](O)[C@@]2(Cl)CC=CC(=O)[C@]12C`, for which the IC50 in data set [1] is 2 µM; in data set [2], 4.9 µM; in data set [3], 2.1 µM; in data set [4], 1.1 µM. For the same compound, the viability at 48 h, 10 µM in data set [5] was found to be 90.1%; in data set [6], 98.1%. Also, the “inhibition (INH)” value in data set [7] is less than 50%.
As to `C=C1C(=O)O[C@@H]2C[C@@]1(C)[C@@H]1C(=O)[C@@]3(O)O[C@]14[C@@]2(C)OC(=O)[C@@]4(O)CC[C@H]1[C@H]3C[C@H]2O[C@]23CC=CC(=O)[C@]13C`, the IC50 in data set [1] amounted to 0.2 µM; in data set [2], 1.3 µM; in data set [3], 0.9 µM; in data set [4], 0.3 µM. For the same compound, the viability at 48 h, 10 µM in data set [5] came out at 85.2%; in data set [6], 90.2%. The “inhibition (INH)” value in data set [7] is listed as less than 50%.
For the compound `C=C1C(=O)O[C@@H]2C[C@@]1(C)[C@@H]1C(=O)[C@@]3(O)O[C@]14[C@@]2(C)OC(=O)[C@@]4(O)CC[C@H]1[C@H]3CC=C2C=CCC(=O)[C@@]21C`, the IC50 in data set [1] was 4.2 µM; in data set [2], 9.4 µM; in data set [3] it was 1.2 µM; in data set [4], 9.1 µM. Also, the viability at 48 h, 10 µM worked out at 91.4% in data set [5] and 95.4% in data set [6]. The “inhibition (INH)” value in data set [7] is less than 50%.
In the case of `C[C@]12C(=O)CC=CC1=CC[C@@H]1[C@@H]2CC[C@]2(O)C(=O)O[C@@]3(C)[C@H]4C[C@]5(C)[C@@H](CO[C@]16O[C@@]32[C@H]5C6=O)C(=O)O4`, the IC50 worked out at 4.3 µM in data set [1], 9.8 µM in data set [2], 2.5 µM in data set [3] and 8.9 µM in data set [4]. Besides, the viability at 48 h, 10 µM came out at 94.2% in data set [5] and 92.5% in data set [6]. In addition, the “inhibition (INH)” value in data set [7] is reported as less than 50%.
